Experimental data: publication doi:10.1101/471615v1 (biorxiv, 2018)
pKd: −log10 of the molar value.

What was measured:
Assay in all cases: biochemical
EphB6 = molecular target: T1, EphB6 (Homo sapiens, UniProt O15197)
T1 sequence (O15197 1-1021): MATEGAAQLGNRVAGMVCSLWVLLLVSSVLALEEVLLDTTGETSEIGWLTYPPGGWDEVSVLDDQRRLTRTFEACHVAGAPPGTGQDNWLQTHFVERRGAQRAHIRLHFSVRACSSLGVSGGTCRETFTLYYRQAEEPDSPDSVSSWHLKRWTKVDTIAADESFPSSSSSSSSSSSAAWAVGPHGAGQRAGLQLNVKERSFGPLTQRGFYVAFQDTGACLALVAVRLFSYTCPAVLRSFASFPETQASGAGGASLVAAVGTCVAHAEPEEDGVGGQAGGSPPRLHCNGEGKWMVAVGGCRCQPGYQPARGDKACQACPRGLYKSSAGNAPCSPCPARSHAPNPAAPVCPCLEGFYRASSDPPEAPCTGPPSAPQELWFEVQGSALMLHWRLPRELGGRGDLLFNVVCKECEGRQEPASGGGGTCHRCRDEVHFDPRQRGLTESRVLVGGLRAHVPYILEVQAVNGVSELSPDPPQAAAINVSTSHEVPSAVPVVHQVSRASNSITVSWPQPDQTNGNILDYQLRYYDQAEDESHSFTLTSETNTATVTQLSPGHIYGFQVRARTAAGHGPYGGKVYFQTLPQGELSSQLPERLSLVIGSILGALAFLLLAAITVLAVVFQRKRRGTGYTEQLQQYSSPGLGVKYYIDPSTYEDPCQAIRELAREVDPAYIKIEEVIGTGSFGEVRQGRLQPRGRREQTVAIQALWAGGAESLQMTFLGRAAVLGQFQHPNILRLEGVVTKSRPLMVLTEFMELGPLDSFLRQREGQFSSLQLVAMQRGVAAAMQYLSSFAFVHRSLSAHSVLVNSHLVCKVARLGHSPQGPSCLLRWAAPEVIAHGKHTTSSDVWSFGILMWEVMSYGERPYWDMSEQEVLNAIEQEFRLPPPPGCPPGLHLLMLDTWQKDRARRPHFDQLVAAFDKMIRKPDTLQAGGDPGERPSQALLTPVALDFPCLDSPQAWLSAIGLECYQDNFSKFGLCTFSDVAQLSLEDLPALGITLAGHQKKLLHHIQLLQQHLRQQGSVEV

[1] = molecular target: AarF domain containing kinase 3, ADCK3 (Homo sapiens, UniProt Q8NI60)
Chain of AarF domain containing kinase 3, ADCK3 (Q8NI60 163-647): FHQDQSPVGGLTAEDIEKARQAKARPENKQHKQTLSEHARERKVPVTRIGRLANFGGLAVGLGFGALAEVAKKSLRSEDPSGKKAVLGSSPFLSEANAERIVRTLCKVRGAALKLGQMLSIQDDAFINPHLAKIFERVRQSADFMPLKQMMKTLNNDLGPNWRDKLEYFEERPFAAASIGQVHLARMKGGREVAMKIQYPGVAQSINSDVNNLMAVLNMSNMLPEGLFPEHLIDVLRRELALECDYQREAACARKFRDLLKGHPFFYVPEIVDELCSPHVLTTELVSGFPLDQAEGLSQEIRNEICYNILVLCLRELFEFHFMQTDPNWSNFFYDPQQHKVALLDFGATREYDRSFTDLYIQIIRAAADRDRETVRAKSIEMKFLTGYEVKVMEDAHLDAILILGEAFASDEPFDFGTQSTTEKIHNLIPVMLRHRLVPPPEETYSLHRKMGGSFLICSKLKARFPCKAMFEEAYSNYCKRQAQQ

[2] = molecular target: receptor-interacting protein kinase 2, RIPK2 (Homo sapiens, UniProt O43353)
Chain of receptor-interacting protein kinase 2, RIPK2 (O43353 whole entry): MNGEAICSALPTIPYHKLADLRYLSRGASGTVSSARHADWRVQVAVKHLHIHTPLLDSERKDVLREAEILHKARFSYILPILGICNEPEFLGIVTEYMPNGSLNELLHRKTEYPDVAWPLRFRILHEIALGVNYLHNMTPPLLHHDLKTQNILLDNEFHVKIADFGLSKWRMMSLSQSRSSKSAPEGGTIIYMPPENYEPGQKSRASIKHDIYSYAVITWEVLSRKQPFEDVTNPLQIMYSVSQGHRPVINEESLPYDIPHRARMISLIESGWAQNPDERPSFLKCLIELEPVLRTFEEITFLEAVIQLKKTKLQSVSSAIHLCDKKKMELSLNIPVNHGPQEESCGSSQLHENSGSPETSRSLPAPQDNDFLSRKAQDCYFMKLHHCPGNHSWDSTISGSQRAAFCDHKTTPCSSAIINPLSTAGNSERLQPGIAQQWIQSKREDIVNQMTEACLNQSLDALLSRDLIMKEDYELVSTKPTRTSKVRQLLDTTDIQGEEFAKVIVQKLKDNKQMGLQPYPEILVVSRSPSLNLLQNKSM

LCK = LCK (Homo sapiens, UniProt P06239)
Chain of LCK (P06239 whole entry): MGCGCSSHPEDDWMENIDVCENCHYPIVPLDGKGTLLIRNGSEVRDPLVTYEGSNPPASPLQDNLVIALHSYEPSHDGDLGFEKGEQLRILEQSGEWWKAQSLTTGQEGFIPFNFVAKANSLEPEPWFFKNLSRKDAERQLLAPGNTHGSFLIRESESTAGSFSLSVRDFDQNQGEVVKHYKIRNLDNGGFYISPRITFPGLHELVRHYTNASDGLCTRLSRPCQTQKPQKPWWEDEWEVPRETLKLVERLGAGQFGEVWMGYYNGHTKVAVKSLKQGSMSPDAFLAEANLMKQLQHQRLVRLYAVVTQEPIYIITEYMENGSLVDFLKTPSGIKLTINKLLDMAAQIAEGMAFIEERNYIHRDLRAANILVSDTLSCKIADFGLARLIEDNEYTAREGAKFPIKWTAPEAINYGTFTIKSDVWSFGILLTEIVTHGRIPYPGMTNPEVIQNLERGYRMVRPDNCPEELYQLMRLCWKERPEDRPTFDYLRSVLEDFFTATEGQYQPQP

ABL1-non-Phos. = ABL1-non-Phos. (Homo sapiens, UniProt P00519)
Chain of ABL1-non-Phos. (P00519 whole entry): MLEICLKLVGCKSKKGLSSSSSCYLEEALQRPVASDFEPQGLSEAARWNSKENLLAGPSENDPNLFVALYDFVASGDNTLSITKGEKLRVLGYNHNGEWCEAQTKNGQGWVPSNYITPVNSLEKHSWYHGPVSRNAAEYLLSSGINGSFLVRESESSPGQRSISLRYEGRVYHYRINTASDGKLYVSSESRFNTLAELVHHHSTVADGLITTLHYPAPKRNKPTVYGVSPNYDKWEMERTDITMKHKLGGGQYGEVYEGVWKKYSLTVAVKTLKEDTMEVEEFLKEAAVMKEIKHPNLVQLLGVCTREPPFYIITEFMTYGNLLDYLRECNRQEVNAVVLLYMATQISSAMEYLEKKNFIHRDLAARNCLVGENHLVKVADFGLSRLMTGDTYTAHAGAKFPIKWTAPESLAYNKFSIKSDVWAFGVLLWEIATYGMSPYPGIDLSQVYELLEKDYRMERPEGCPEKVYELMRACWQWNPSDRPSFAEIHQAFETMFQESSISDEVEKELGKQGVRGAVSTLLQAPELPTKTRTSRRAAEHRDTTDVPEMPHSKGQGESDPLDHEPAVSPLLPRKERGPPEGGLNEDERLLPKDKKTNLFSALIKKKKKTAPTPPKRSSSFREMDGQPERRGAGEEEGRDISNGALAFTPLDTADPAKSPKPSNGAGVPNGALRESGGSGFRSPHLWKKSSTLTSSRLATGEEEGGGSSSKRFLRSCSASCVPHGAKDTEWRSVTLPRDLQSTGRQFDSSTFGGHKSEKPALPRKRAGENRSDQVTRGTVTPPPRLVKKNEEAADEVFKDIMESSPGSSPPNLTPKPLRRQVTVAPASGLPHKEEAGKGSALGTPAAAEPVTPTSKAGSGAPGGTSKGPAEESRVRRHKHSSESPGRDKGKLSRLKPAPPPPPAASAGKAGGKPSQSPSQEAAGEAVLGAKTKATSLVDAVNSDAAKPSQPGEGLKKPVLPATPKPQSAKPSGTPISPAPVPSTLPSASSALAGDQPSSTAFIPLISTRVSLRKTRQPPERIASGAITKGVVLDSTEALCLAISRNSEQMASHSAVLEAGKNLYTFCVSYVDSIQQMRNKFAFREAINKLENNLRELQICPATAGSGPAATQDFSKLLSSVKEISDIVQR

EphA1 = molecular target: T2, EphA1 (Homo sapiens, UniProt P21709)
T2 sequence (P21709 1-976): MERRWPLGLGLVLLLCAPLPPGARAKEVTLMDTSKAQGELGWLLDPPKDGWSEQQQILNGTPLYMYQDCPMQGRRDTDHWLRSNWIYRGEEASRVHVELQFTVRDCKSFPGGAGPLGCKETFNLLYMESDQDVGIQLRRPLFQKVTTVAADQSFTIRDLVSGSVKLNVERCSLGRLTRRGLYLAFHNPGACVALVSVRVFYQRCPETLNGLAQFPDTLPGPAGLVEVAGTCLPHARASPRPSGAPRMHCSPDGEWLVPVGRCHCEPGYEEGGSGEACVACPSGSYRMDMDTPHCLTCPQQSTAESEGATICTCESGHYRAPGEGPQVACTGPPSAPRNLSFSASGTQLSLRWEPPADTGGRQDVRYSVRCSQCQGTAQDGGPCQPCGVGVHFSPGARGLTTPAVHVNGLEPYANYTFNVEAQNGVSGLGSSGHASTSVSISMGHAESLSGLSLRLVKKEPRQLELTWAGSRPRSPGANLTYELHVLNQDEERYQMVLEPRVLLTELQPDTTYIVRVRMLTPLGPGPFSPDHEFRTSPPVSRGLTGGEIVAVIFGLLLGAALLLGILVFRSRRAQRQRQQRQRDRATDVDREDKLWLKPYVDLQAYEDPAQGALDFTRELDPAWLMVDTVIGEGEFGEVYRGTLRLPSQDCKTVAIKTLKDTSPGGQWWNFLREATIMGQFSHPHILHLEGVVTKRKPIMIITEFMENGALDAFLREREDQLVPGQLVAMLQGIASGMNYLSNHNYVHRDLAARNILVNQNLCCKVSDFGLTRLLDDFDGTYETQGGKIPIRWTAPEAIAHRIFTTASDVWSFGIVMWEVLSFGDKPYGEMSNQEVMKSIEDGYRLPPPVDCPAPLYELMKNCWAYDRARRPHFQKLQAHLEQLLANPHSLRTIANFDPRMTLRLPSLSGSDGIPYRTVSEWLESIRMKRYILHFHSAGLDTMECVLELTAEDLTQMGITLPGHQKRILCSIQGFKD

ACVR1 = molecular target: T3, ACVR1 (Homo sapiens, UniProt Q04771)
T3 sequence (Q04771 1-509): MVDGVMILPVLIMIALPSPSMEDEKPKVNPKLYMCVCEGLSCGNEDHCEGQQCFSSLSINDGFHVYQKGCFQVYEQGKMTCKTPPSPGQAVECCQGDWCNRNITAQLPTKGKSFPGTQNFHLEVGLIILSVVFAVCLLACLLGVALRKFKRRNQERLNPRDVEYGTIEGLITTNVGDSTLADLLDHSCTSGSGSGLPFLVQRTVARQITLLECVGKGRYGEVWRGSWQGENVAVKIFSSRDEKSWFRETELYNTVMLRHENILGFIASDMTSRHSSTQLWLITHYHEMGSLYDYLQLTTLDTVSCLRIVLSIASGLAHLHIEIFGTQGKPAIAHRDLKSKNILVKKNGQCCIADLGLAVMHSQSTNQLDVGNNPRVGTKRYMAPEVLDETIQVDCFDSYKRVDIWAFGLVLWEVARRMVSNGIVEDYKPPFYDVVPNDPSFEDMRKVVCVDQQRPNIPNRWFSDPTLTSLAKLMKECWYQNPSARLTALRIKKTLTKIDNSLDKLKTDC

- pKd (EphB6): < 5.00
- pKd [1]: < 5.00
- pKd [2]: < 5.00
- pKd (LCK): < 5.00
- pKd (ABL1-non-Phos.): < 5.00
- pKd (EphA1): < 5.00
- pKd (ACVR1): < 5.00
SMILES: COc1cc(N(C)c2ccnc3ccc(C(F)(F)F)cc23)cc(OC)c1OC [compound 21, negative control (21)]
